Reference: US7112590B2, “Thrombin inhibitors” (LEK Pharmaceuticals d.d., priority 2000, dated 2006)

Key:
Type in all cases: biochemical
[1] = tested on: normal pooled human plasma; experiment: Thrombin time (TT) coagulation assay; settings: concentration of inhibitor that doubled the clotting time, bovine thrombin reagent
Protocol: (§1) The Anticoagulant effect of thrombin inhibitors was measured by thrombin time (TT), activated partial thromboplastin time (aPTT), and prothrombin time (PT) assays. Inhibitors were added to normal pooled human plasma over a range of concentrations and clotting was recorded in an automated coagulometer (Fibrintimer, Dade/Behring). The concentration of inhibitor that doubled the clotting time was determined for each assay.
In a plasma sample thrombin converts fibrinogen into fibrin and the clot is formed. The time for clot formation was measured. Thrombin time is prolonged due to disorders in fibrin polymerisation or due to the presence of thrombin inhibitors.
Thrombin (Test Thrombin Reagent, 1.5 IU/mL, Dade/Behring): lyophilized bovine thrombin was dissolved in 5 mL of HEPES (25 mmol/L, pH 7.4). The reagent was warmed to 37° C. prior to the assay.
(§2) Normal pooled plasma: venous blood from 11 apparently healthy volunteers was collected (1 part 0.11 mol/L sodium citrate solution with 9 parts of blood) and centrifuged immediately at 2000×g for 30 minutes at 4° C. Plasma was removed, pooled and stored in aliquots at −70° C. until use.
(§3) Inhibitors: were dissolved in DMSO (10 mM stock solution) and diluted with distilled water to working solutions (the highest concentration 100 μM).
Inhibitors (10 μL working solution, concentrations from 2.5 μM to 100 μM) and pooled plasma (90 μL) were incubated at 37° C. for 5 minutes and then thrombin (200 μL) was added. Clot formation was measured in a coagulometer in duplicate.

[2] = target: T1, trypsin (UniProt P00760); experiment: Determination of trypsin Ki (chromogenic substrate S-2222); settings: substrate S-2222, pH 7.5, 25° C.
T1 construct: Trypsin (6000 E/mg prot; Sigma): dissolved in distilled water to give a stock solution of 300 E/mL
T1 sequence (P00760 1-246): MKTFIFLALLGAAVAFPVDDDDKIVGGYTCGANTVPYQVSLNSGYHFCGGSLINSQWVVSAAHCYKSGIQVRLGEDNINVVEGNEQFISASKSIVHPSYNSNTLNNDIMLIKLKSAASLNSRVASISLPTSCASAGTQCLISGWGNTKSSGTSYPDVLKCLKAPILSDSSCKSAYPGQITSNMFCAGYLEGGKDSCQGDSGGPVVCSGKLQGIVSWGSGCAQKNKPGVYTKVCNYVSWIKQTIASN
Protocol: (§4) The enzyme inhibitory effect of the compounds can be identified by determination of inhibition constant Ki. It denotes the degree of dissociation of the enzyme-inhibitor complex. Low dissociation constant means high potency of inhibitor. Ki can be determined during reaction of the enzyme with a specific chromogenic substrate which under hydrolysis by the enzyme develops color. Reaction in time is recorded by spectrophotometry and Ki is calculated from kinetic parameters (Vmax, Km, reaction rate).
2. Determination of Trypsin Ki
The ability of a compound to act as an inhibitor of trypsin catalytic activity was assessed by determination of Ki.
(§5) Buffer: HBSA, pH 7.5 (10 mM Hepes, 150 mM NaCl, 0.1% w/v bovine serum albumin)
Substrate (S-2222: N-benzoyl-Ile-Glu-Gly-Arg-pNA HCl, 25 mg; Chromogenix): dissolved in distilled water to 2 mM concentration. (Km is 21 μM)
Trypsin (6000 E/mg prot.; Sigma): dissolved in distilled water to give a stock solution of 300 E/mL.
Inhibitors: were dissolved in DMSO (10 mM stock solution) and diluted with distilled water to working solution (the highest final concentration of DMSO was 10%).
50 μL of buffer, 50 μL of test compound in water (final concentrations from 50 to 300 μM) and 50 μL of trypsin (3 mE/mL f.c.) were incubated for 15 minutes at room temperature. The reaction was started with 50 μL of S-2222 (50 μM or 100 μM f.c.) and the absorbance of each sample at 405 nm (at 25° C.) was measured in triplicates every 10 seconds for a period of 15 minutes using a microtiter plate reader (Tecan Sunrise).
Trypsin activity was determined from the change in absorbance in the linear part of velocity graph. Ki was calculated according to Cheng and Prussof (Biochem Pharmacol, 1973) where Ki is, IC50/(1+S/Km). The Km for the substrate was determined under test conditions with at least 6 substrate concentrations varying around Km and calculated with the non-linear regression program Curve expert.

[3] = target: T2, human thrombin (Homo sapiens, UniProt P00734); experiment: Determination of thrombin Ki (chromogenic substrate S-2238); settings: for Ki: human thrombin, substrate S-2238, pH 7.5, 25° C.; for Ki trypsin/ Ki thrombin: selectivity: ratio of Ki for trypsin to Ki for thrombin
T2 construct: Human thrombin (308 NIH; Sigma); purchased Sigma
Protocol: as §4
1. Determination of Thrombin Ki
The ability of a compound to act as an inhibitor of human thrombin catalytic activity was assessed by determination of Ki.
as §5
Substrate (S-2238: H-D-Phe-Pip-Arg-pNA HCl, 25 mg; Chromogenix): dissolved in distilled water to 1 mM concentration.
Human thrombin (308 NIH; Sigma): dissolved in saline to give a stock solution of 20 NIH/mL.
Inhibitors: were dissolved in DMSO (10 mM stock solution) and diluted with distilled water to working solutions (the highest final concentration of DMSO was 3%).
A mixture of 50 μL of buffer, 50 μL of inhibitor in water (final concentrations from 10 to 100 μM) and 50 μL of thrombin (0.5 NIH U/mL f.c.) was incubated for 15 minutes at room temperature. The reaction was started with 50 μL of S-2238 (20 μM or 40 μM f.c.) and the absorbance of each sample at 405 nm (at 25° C.) was measured in triplicate every 10 seconds for a period of 15 minutes using a microtiter plate reader (Tecan Sunrise).
Thrombin activity was determined from the change in absorbance in the linear part of the velocity graph. Ki was calculated according to Cheng and Prussof (Biochem Pharmacol, 1973) where Ki is IC50/(1+S/Km). The Km for the substrate was determined under the test conditions with at least 6 substrate concentrations varying around Km and calculated with the non-linear regression programme Curve expert.
3. Selectivity to Thrombin
By the use of other serine protease like trypsin with the appropriate chromogenic substrate, selectivity of inhibitors with respect to thrombin was determined. Selectivity of an inhibitor is expressed as a ratio of Ki for trypsin to Ki for thrombin.

[4] = tested on: normal pooled human plasma; experiment: Prothrombin time (PT) coagulation assay; settings: concentration of inhibitor that doubled the clotting time
Protocol: as §1
An optimal amount of thromboplastin and calcium are added to plasma sample and the time of fibrin clot formation wass measured. PT is a rapid, sensitive screening test for coagulation disorders of the extrinsic pathway. It is well suited for the induction and monitoring of oral anticoagulant therapy, for diagnosing genetic or acquired deficiencies in coagulation factors and checking the synthesis performance of the liver in hepatic diseases. PT is prolonged due to extrinsic coagulation factors deficit or due to the presence of inhibitors.
Thromboplastin (Thromborel S, Dade/Behring): was dissolved in 4 mL of distilled water. Reagent was at 37° C. prior to use at least 30 minutes.
as §2, §3
Inhibitor (10 μL working solution, concentrations from 5 μM to 100 μM) and pooled plasma (90 μL) were incubated at 37° C. for 5 minutes and then Thromborel S (200 μL) was added. Clot formation was measured with a coagulometer in duplicate.

[5] = tested on: normal pooled human plasma; experiment: Activated partial thromboplastin time (aPTT) coagulation assay; settings: concentration of inhibitor that doubled the clotting time
Protocol: as §1
2. Activated Partial Thromboplastin Time (aPTT)
Incubation of plasma with the optimal quantity of phospholipids and a surface activator leads to activation of factors of the intrinsic coagulation pathway. The addition of calcium ions triggers the coagulation process. The time of fibrin clot formation wass measured. aPTT was used as a screening test for coagulation disorders of the intrinsic coagulation pathway. It is prolonged due to intrinsic coagulation factors deficit or due to the presence of inhibitors.
Pathromtin SL (Dade/Behring): silicon dioxide particles, vegetable phospholipids, sodium chloride (2.4 g/L), Hepes (14.3 g/L, pH 7.6), sodium azide (<1 g/L). The reagent was used at room temperature (15–25° C.).
Calcium chloride solution: 0.025 mol/L, warmed to 37° C.
as §2, §3
Inhibitor (10 μL working solution, concentrations from 5 μM to 100 μM) and pooled plasma (90 μL) were incubated at 37° C. for 5 minutes. Pathromtin (100 μL) was added and the sample was incubated for another 2 minutes at 37° C. The addition of calcium chloride (100 μL) triggered the coagulation process and clot formation was detected with a coagulometer in duplicate.

| Ki [2] [µM] | Ki [3] [µM] | Ki trypsin/ Ki thrombin [3] | SMILES | TT [1] [µM] | PT [4] [µM] | aPTT [5] [µM] |
| --- | --- | --- | --- | --- | --- | --- |
| 19.9 | 0.28 | 70.6 | O=C(O)CN[C@H](CC1CCCCC1)C(=O)N1CCC[C@H]1C(=O)NCC1CCc2n[nH]cc2C1 (stereo partly drawn) | 4.9 | 55.3 | 28 |
| > 68.3 | 0.12 | >569 | Nc1nc2c(s1)CC(NC(=O)[C@@H]1CCCN1C(=O)[C@@H](CC1CCCCC1)NS(=O)(=O)Cc1ccccc1)CC2 (stereo partly drawn) [drawing 91] | 15 | 114 | 59 |
| 177 | 0.14 | 1267 | O=C(NCC1CCc2n[nH]cc2C1)[C@@H]1CCCN1C(=O)[C@@H](CC1CCCCC1)NS(=O)(=O)Cc1ccccc1 (stereo partly drawn) [drawing 92] | 11 | 78.3 | 42.3 |
| 39.9 | 0.37 | 107.8 | Nc1nc2c(s1)CC(CNC(=O)[C@@H]1CCCN1C(=O)[C@@H](CC1CCCCC1)NS(=O)(=O)Cc1ccccc1)CC2 (stereo partly drawn) [drawing 95] | 15.8 | 95.3 | 64 |
| > 68.3 | 0.62 | >110 | Nc1nc2c(s1)CC(NC(=O)[C@@H]1CCCN1C(=O)[C@@H](Cc1ccccc1)NS(=O)(=O)Cc1ccccc1)CC2 (stereo partly drawn) [drawing 96] | 84 | 578 | 332 |
